Test results reported in publication PMC3306394 (PLoS ONE, 2012).
Like-named read-outs stand apart in the source and are kept apart here.

Assays:
[1] = biological target: T1, HpSK M10A (Helicobacter pylori, UniProt P56073, M10A); format: biochemical; details: apparent value
T1 construct: His6 (own knowledge: pQE30 vector gives an N-terminal MRGS-His6 tag); made in house; host or cells: E. coli
Method: (§1) SK activity was determined by coupling the release of ADP from the SK-catalyzed reaction to the oxidation of NADH using pyruvate kinase (EC 2.7.1.40) and lactate dehydrogenase (EC 1.1.1.27) as coupling enzymes. […] All assays were conducted in a 96-well microplate and analyzed with a spectrophotometer (FLUOstar OPTIMA, BMG LABTECH). The relative activity of wild-type HpSK was set to 100%.

[2] = biological target: T2, HpSK E114A (Helicobacter pylori, UniProt P56073, E114A); format: biochemical
T2 construct: His6 (own knowledge: pQE30 vector gives an N-terminal MRGS-His6 tag); made in house; host or cells: E. coli
T2 sequence (P56073 whole entry E114A): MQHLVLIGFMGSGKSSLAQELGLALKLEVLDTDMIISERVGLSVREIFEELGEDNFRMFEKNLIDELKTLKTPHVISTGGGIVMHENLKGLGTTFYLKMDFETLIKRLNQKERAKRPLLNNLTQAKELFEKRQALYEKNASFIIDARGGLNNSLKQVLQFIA
Method: as §1, with “enzymes. Shikimate-dependent oxidation of NADH was monitored by a decrease in A340 (ε = 6,200 M^−1 cm^−1).” for “enzymes.”

[3] = biological target: T3, HpSK F48Y (Helicobacter pylori, UniProt P56073, F48Y); format: biochemical
T3 construct: His6 (own knowledge: pQE30 vector gives an N-terminal MRGS-His6 tag); made in house; host or cells: E. coli
T3 sequence (P56073 whole entry F48Y): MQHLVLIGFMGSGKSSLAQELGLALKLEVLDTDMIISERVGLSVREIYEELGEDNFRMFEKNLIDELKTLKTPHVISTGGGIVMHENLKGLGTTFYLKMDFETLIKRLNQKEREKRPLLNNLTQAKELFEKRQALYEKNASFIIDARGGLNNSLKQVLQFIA
Method: as §1, with “enzymes. Shikimate-dependent oxidation of NADH was monitored by a decrease in A340 (ε = 6,200 M^−1 cm^−1).” for “enzymes.”

[4] = biological target: T4, wild-type HpSK (Helicobacter pylori shikimate kinase) (Helicobacter pylori, UniProt P56073); details: wild-type enzyme, cited from earlier work
T4 construct: His6 (own knowledge: the pQE30 vector gives an N-terminal MRGS-His6 tag); made in house; host or cells: E. coli (printed for the mutants; same procedures as for wild type)
T4 sequence (P56073 whole entry): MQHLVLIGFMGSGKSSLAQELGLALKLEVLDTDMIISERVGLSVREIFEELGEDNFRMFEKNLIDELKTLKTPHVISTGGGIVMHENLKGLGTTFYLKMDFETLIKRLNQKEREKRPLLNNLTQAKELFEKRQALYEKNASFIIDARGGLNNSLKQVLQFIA

[5] = biological target: T5, wild-type HpSK (Helicobacter pylori, UniProt P56073); test: Isothermal titration calorimetry, wild-type HpSK; format: binding
T5 construct: His6 (own knowledge: the pQE30 vector gives an N-terminal MRGS-His6 tag); made in house; host or cells: E. coli (printed for the mutants; same procedures as for wild type)
T5 sequence (P56073 whole entry): as above
Method: (§2) Titration experiments were performed by ITC using an iTC200 or VP-ITC instrument (MicroCal, Piscataway, NJ, USA), and a 0.2-ml (iTC200) or 1.4-ml (VP-ITC) sample cell containing the macromolecule solution. All proteins were prepared in a buffer containing 20 mM potassium phosphate, pH 7.3. Prior to the experiment, samples were filtered and degassed under vacuum for 10 min in a Thermo Vac system (Microcal). The sample cell was filled with sample protein solution (15 µM) or the working buffer. Procedures of iTC200 titrations with a ligand (450 µM) were as follows: an initial 1-µl injection (not included in data analysis) followed by 19 injections of 2 µl each, with 2-min intervals between injections. Similar procedures for VP-ITC titrations were also performed: an initial 2-µl injection followed by 24 injections of 10 µl each, with 3-min intervals between injections. The experiments were performed with a constant stirrer speed of 1000 rpm (iTC200) or 290 rpm (VP-ITC) at 25°C. The binding isotherms were fitted to a one-site binding model to obtain the thermodynamic parameters with the initial point discarded. Data analysis was conducted using Origin 7 software.

[6] = biological target: T1, HpSK M10A; test: Isothermal titration calorimetry, M10A; format: binding; details: ITC, 25°C, ND = not detectable
Method: as §2

[7] = biological target: T6, HpSK D33A (Helicobacter pylori, UniProt P56073, D33A); test: Isothermal titration calorimetry, D33A; format: binding; details: ITC, 25°C, ND = not detectable
T6 construct: His6 (own knowledge: pQE30 vector gives an N-terminal MRGS-His6 tag); made in house; host or cells: E. coli
T6 sequence (P56073 whole entry D33A): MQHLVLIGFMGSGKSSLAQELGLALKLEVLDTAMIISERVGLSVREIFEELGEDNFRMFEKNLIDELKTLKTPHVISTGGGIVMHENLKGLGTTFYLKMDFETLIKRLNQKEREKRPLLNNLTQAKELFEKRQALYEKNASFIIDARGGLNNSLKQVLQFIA
Method: as §2

[8] = biological target: T7, HpSK D33E (Helicobacter pylori, UniProt P56073, D33E); test: Isothermal titration calorimetry, D33E; format: binding; details: ITC, 25°C, ND = not detectable
T7 construct: His6 (own knowledge: pQE30 vector gives an N-terminal MRGS-His6 tag); made in house; host or cells: E. coli
T7 sequence (P56073 whole entry D33E): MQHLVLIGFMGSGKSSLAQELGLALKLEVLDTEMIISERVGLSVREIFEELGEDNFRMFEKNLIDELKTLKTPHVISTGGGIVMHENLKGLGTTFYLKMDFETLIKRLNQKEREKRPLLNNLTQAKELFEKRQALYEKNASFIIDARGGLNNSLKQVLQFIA
Method: as §2

[9] = biological target: T8, HpSK F48A (Helicobacter pylori, UniProt P56073, F48A); test: Isothermal titration calorimetry, F48A; format: binding; details: ITC, 25°C, ND = not detectable
T8 construct: His6 (own knowledge: pQE30 vector gives an N-terminal MRGS-His6 tag); made in house; host or cells: E. coli
T8 sequence (P56073 whole entry F48A): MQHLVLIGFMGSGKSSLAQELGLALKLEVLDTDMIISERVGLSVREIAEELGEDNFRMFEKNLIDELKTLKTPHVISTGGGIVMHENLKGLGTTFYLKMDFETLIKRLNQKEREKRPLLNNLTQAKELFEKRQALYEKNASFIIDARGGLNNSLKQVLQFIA
Method: as §2

[10] = biological target: T3, HpSK F48Y; test: Isothermal titration calorimetry, F48Y; format: binding; details: ITC, 25°C, ND = not detectable
Method: as §2

[11] = biological target: T9, HpSK R57A (Helicobacter pylori, UniProt P56073, R57A); test: Isothermal titration calorimetry, R57A; format: binding; details: ITC, 25°C, ND = not detectable
T9 construct: His6 (own knowledge: pQE30 vector gives an N-terminal MRGS-His6 tag); made in house; host or cells: E. coli
T9 sequence (P56073 whole entry R57A): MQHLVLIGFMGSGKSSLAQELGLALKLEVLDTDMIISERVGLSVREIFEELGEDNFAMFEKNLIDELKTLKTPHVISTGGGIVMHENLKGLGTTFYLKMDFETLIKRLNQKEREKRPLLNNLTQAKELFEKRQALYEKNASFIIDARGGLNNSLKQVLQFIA
Method: as §2

[12] = biological target: T10, HpSK R57K (Helicobacter pylori, UniProt P56073, R57K); test: Isothermal titration calorimetry, R57K; format: binding; details: ITC, 25°C, ND = not detectable
T10 construct: His6 (own knowledge: pQE30 vector gives an N-terminal MRGS-His6 tag); made in house; host or cells: E. coli
T10 sequence (P56073 whole entry R57K): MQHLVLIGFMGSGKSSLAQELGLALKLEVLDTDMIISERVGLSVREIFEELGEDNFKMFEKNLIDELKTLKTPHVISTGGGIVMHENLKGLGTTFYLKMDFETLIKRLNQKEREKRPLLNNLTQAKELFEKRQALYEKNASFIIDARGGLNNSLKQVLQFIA
Method: as §2

[13] = biological target: T2, HpSK E114A; test: Isothermal titration calorimetry, E114A; format: binding; details: ITC, 25°C, ND = not detectable
Method: as §2

[14] = biological target: T11, HpSK R116A (Helicobacter pylori, UniProt P56073, R116A); test: Isothermal titration calorimetry, R116A; format: binding; details: ITC, 25°C, ND = not detectable
T11 construct: His6 (own knowledge: pQE30 vector gives an N-terminal MRGS-His6 tag); made in house; host or cells: E. coli
T11 sequence (P56073 whole entry R116A): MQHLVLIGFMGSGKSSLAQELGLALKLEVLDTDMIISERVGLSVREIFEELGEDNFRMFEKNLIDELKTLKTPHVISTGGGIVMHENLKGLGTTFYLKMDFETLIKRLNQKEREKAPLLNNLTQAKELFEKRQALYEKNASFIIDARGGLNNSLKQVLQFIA
Method: as §2

[15] = biological target: T12, HpSK R116K (Helicobacter pylori, UniProt P56073, R116K); test: Isothermal titration calorimetry, R116K; format: binding; details: ITC, 25°C, ND = not detectable
T12 construct: His6 (own knowledge: pQE30 vector gives an N-terminal MRGS-His6 tag); made in house; host or cells: E. coli
T12 sequence (P56073 whole entry R116K): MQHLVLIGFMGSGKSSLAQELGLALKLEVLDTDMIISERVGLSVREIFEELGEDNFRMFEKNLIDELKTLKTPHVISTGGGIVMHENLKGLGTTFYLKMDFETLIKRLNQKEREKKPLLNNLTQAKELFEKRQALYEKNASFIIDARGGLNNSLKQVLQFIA
Method: as §2

[16] = biological target: T13, HpSK R132A (Helicobacter pylori, UniProt P56073, R132A); test: Isothermal titration calorimetry, R132A; format: binding; details: ITC, 25°C, ND = not detectable
T13 construct: His6 (own knowledge: pQE30 vector gives an N-terminal MRGS-His6 tag); made in house; host or cells: E. coli
T13 sequence (P56073 whole entry R132A): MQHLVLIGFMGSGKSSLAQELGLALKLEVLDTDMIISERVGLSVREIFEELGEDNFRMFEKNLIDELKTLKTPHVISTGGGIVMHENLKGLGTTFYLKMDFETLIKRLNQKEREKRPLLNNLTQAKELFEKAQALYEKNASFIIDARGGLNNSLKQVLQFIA
Method: as §2

[17] = biological target: T14, HpSK R132K (Helicobacter pylori, UniProt P56073, R132K); test: Isothermal titration calorimetry, R132K; format: binding; details: ITC, 25°C, ND = not detectable
T14 construct: His6 (own knowledge: pQE30 vector gives an N-terminal MRGS-His6 tag); made in house; host or cells: E. coli
T14 sequence (P56073 whole entry R132K): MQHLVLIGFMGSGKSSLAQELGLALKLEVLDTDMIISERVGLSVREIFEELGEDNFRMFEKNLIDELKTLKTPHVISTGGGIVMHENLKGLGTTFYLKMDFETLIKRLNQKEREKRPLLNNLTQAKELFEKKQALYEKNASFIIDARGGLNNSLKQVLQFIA
Method: as §2

[18] = apparent value, read-out: Km (MgATP)
[19] = read-out: Km (shikimate), apparent value

T1 sequence (P56073 whole entry M10A): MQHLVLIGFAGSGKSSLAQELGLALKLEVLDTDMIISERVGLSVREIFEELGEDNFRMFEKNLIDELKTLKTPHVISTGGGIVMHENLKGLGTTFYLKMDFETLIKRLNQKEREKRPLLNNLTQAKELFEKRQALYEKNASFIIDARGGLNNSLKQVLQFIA

Nc1ncnc2c1ncn2[C@@H]1O[C@H](COP(=O)(O)OP(=O)(O)OP(=O)(O)O)[C@@H](O)[C@H]1O [ATP]
V max(MgATP) [1]: 26 ± 1 µmol/min/mg | Km ([1]; read-out: Km (MgATP)): 293 µM | V max(MgATP) ([2]; apparent value): 26 ± 2 µmol/min/mg | Km [2, 18]: 143 µM | V max(MgATP) ([3]; apparent value): 17 ± 1 µmol/min/mg | Km [3, 18]: 231 µM | V max(MgATP) [4]: 26 ± 1 µmol/min/mg | Km ([4]; read-out: Km (MgATP)): 101 µM

O=C(O)C1=C[C@@H](O)[C@@H](O)[C@H](O)C1 [shikimate, shikimic acid]
V max(shikimate) [1]: 16 ± 1 µmol/min/mg | V max(shikimate) ([2]; apparent value): 23 ± 1 µmol/min/mg | Km [2, 19]: 39 µM | V max(shikimate) ([3]; apparent value): 13 ± 2 µmol/min/mg | Km [3, 19]: 291 µM | Kd [5]: 320 ± 70 nM | Kd [6]: 34000 ± 7000 nM | Kd [7]: no heat release | Kd [8]: no heat release | Kd [9]: lost binding activity | Kd [10]: 5200 ± 400 nM | Kd [11]: no heat release | Kd [12]: no heat release | Kd [13]: 330 ± 30 nM | Kd [14]: no heat release | Kd [15]: no heat release | Kd [16]: no heat release | Kd [17]: no heat release | Km ([4]; read-out: Km (shikimate)): 60 µM | V max(shikimate) [4]: 22 ± 1 µmol/min/mg
